In patent publication US9290511B2, “Thieno-pyrimidines, useful as potassium channel inhibitors” (XENTION LIMITED, priority 2011, dated 2016):

What follows are molecules tested against T1, Kir3.1/3.4 (Rattus norvegicus, UniProt P48548+P63251) (assay: Kir3.1/3.4 Electrophysiology Method (manual whole-cell patch clamp)). Conditions: Electrophysiology Method (TABLE 1).
T1 construct: expressed in transfected cells
T1 sequence (P63251 1-501): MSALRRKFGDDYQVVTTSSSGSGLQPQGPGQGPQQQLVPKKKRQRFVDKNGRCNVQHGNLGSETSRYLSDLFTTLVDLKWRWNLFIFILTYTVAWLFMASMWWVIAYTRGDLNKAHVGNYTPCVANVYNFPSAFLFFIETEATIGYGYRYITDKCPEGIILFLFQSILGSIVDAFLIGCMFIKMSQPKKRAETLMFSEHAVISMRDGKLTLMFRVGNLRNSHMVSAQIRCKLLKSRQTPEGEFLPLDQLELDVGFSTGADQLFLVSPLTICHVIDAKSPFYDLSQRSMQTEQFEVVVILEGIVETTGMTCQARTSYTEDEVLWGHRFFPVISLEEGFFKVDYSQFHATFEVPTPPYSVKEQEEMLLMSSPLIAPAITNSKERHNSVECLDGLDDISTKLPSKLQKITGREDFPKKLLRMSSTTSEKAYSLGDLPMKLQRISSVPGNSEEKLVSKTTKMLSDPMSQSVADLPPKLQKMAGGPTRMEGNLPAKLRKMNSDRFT
T1 sequence (P48548 1-419): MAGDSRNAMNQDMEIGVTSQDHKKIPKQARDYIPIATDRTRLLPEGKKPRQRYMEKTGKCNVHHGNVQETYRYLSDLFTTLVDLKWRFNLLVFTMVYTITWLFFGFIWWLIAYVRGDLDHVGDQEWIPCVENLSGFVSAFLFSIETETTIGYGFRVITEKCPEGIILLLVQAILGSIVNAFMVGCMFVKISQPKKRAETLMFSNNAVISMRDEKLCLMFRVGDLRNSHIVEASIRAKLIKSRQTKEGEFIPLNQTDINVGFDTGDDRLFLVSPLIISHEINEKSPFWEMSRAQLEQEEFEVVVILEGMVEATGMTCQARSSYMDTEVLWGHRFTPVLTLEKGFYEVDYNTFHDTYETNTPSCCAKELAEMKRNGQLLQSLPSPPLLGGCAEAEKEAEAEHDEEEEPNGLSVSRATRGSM
Type: cell-based
Outline: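 Percent inhibition is relative to the pre-drug current, both leak-subtracted using a potassium-free bather, taken as the mean current at −140 mV. The protocol was a step to +60 mV, a ramp to −140 mV, then a return to −60 mV holding, every 10 s. Cells were rat Kir3.1/3.4-transfected HEK293 recorded by whole-cell patch clamp.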

SMILES	IC50 [nM]
CC(C)c1csc2nc(N3CCC(C(N)=O)C3)nc(N3CCC(CN(C)C4CCN(C)C4)CC3)c12 (centres unmarked) [Example 245]	< 500
CCN(CC)C(=O)C1CCCN(CC2CCN(c3ncnc4scc(-c5ccccc5)c34)CC2)C1 (centres unmarked) [Example 246]	< 500
NC(=O)C1CCCN1CC1CCN(c2ncnc3scc(-c4ccccc4)c23)CC1 (centres unmarked) [Example 247]	< 500
CC(=O)N(C)C1CCN(CC2CCN(c3ncnc4scc(-c5ccccc5)c34)CC2)C1 (centres unmarked) [Example 248]	< 500
CN1CCC(N(C)C(=O)C2CCN(c3ncnc4scc(-c5ccccc5)c34)CC2)C1 (centres unmarked) [Example 249]	< 500
CN1CC(N(C)CC2CCN(c3ncnc4scc(-c5ccccc5)c34)CC2)CC1=O (centres unmarked) [Example 250]	500 to 3000
CN(CC1CCN(c2ncnc3scc(-c4ccccc4)c23)CC1)C1CCC1 [Example 251]	< 500
CNC(=O)CN(CC1CCN(c2ncnc3scc(-c4ccccc4)c23)CC1)C1CCC1 [Example 252, 2-[cyclobutyl-[[1-(5-phenylthieno[2,3-d]pyrimidin-4-yl)-4-piperidyl]methyl]amino]-N-methyl-acetamide]	500 to 3000
CC(=O)NC1CCN(CC2CCN(c3ncnc4scc(-c5ccccc5)c34)CC2)C1 (centres unmarked) [Example 253]	< 500
C[C@@H](CN(C)C)OCC1CCN(c2ncnc3scc(-c4ccccc4)c23)CC1 [Example 254]	< 500
CN1CCCC1CCOCC1CCN(c2nc(N3CCC(C(N)=O)C3)nc3scc(-c4ccccc4)c23)CC1 (centres unmarked) [Example 255]	< 500
NC(=O)C1CCN(c2nc(N3CCC(COCCN4CCCC4)CC3)c3c(-c4ccccc4)csc3n2)C1 (centres unmarked) [Example 256]	< 500
CC(=O)NC1CCN(c2nc(N3CCC(COCCN4CCCC4)CC3)c3c(-c4ccccc4)csc3n2)C1 (centres unmarked) [Example 257]	< 500
NC(=O)C1CCN(c2nc(N3CCC(COCCN4CCOCC4)CC3)c3c(-c4ccccc4)csc3n2)C1 (centres unmarked) [Example 258]	< 500
CC(=O)NC1CCN(c2nc(N3CCC(COCCN4CCOCC4)CC3)c3c(-c4ccccc4)csc3n2)C1 (centres unmarked) [Example 259]	< 500
CNC(=O)C1(NCC2CCN(c3ncnc4scc(-c5ccccc5)c34)CC2)CCC1 [Example 260]	< 500
CC(=O)N1CCN(CCOCC2CCN(c3ncnc4scc(-c5ccccc5)c34)CC2)CC1 [Example 261]	< 500
c1ccc(-c2csc3ncnc(N4CC[C@@H](COCCN5CCCC5)C4)c23)cc1 [Example 262]	< 500
c1ccc(-c2csc3ncnc(N4CC[C@H](COCCN5CCCC5)C4)c23)cc1 [Example 263]	< 500

SMILES	IC50 [nM]
CC(C)NC(=O)c1sc2ncnc(N3CCC(COCCN4CCCC4)CC3)c2c1C(C)C [Example 264]	500 to 3000
CC(C)c1csc2ncnc(N3CCC(COCCN4CCCC4)CC3)c12 [Example 265]	< 500
CN1CCC(N(C)CC2CCN(c3ncnc4sc(Br)c(-c5ccccc5)c34)CC2)C1 (centres unmarked) [Example 266]	< 500
O=C(NCCN1CCCC1)C1CCN(c2ncnc3scc(-c4ccccc4)c23)CC1 [Example 267]	500 to 3000
O=C(NCCN1CCCC1)C1CCCN(c2ncnc3scc(-c4ccccc4)c23)C1 (centres unmarked) [Example 268]	< 500
c1ccc(-c2csc3ncnc(N4CCC(OCCN5CCCC5)C4)c23)cc1 (centres unmarked) [Example 269]	< 500
O=C(NCCN1CCCC1)C1CCN(c2ncnc3scc(-c4ccccc4)c23)C1 (centres unmarked) [Example 270]	500 to 3000
c1ccc(-c2csc3ncnc(N4CCC(OCCN5CCCC5)CC4)c23)cc1 [Example 271]	< 500
c1ccc(-c2csc3ncnc(N4CCCC(OCCN5CCCC5)C4)c23)cc1 (centres unmarked) [Example 272]	< 500
c1ccc(-c2csc3ncnc(N4CC(COCCN5CCCC5)C4)c23)cc1 [Example 273]	500 to 3000
NC(=O)C1CCN(c2nc(N3CCC(COCCN4CCCC4)CC3)nc3scc(-c4ccccc4)c23)C1 (centres unmarked) [Example 274]	< 500
CN(C)c1nc(N2CCC(COCCN3CCCC3)CC2)nc2scc(-c3ccccc3)c12 [Example 275]	< 500
c1ccc(-c2csc3nc(N4CCC(COCCN5CCCC5)CC4)nc(N4CCOCC4)c23)cc1 [Example 276]	< 500
NC(=O)[C@@H]1CCCN1CCOCC1C2CN(c3ncnc4scc(-c5ccc(F)cc5)c34)CC12 (some centres unmarked) [Example 277]	< 500
Fc1ccc(-c2csc3ncnc(N4CC5C(COCCN6CC[C@@H](F)C6)C5C4)c23)cc1 (some centres unmarked) [Example 278]	< 500
Fc1ccc(-c2csc3nc(Cl)nc(N4CCC(COCCN5CCCC5)CC4)c23)cc1 [Example 279]	< 500
O=C(NCCO)c1sc2ncnc(N3CCC(COCCN4CCCC4)CC3)c2c1-c1ccccc1 [Example 280]	500 to 3000
OCc1sc2ncnc(N3CCC(COCCN4CCCC4)CC3)c2c1-c1ccccc1 [Example 281, [5-phenyl-4-[4-(2-pyrrolidin-1-ylethoxymethyl)-1-piperidyl]thieno[2,3-d]pyrimidin-6-yl]methanol]	< 500
CN1CCC(N(C)C(=O)C2CCCN(c3ncnc4scc(-c5ccccc5)c34)C2)C1 (centres unmarked) [Example 282]	500 to 3000

SMILES	IC50 [nM]
c1sc2nc(N3CCC(COCCN4CCCC4)CC3)ncc2c1C1CCCCC1 [Example 283]	< 500
c1ccc(-c2csc3ncnc(N4CC5CC4CC5OCCN4CCCC4)c23)cc1 (centres unmarked) [Example 284]	< 500
O=C(NCCN1CCOCC1)C1CCCN(c2ncnc3scc(-c4ccccc4)c23)C1 (centres unmarked) [Example 285]	500 to 3000
c1ccc(-c2csc3ncnc(N4C5CCC4CC(COCCN4CCCC4)C5)c23)cc1 (centres unmarked) [Example 286]	< 500
CC(C)c1csc2ncnc(N3C4CCC3CC(COCCN3CCCC3)C4)c12 (centres unmarked) [Example 287]	< 500
CC(C)c1csc2ncnc(N3CC4CC3CC4OCCN3CCCC3)c12 (centres unmarked) [Example 288]	< 500
c1ccc(-c2csc3ncnc(N4C5CCC4CC(OCCN4CCCC4)C5)c23)cc1 (centres unmarked) [Example 289]	< 500
NC(=O)C1CCN(CCOC2CC3CC2CN3c2ncnc3scc(-c4ccccc4)c23)C1 (centres unmarked) [Example 290]	< 500
F[C@H]1CCN(CCOC2CC3CC2CN3c2ncnc3scc(-c4ccccc4)c23)C1 (some centres unmarked) [Example 291]	< 500
CC(C)c1csc2ncnc(N3CC4CC3CC4OCCN3CC4CC3CO4)c12 (centres unmarked) [Example 292, 5-[2-[[2-(5-isopropylthieno[2,3-d]pyrimidin-4-yl)-2-azabicyclo[2.2.1]heptan-5-yl]oxy]ethyl]-2-oxa-5-azabicyclo[2.2.1]heptane]	500 to 3000
NC(=O)[C@H]1CCCN1CCOC1CC2CC1CN2c1ncnc2scc(-c3ccccc3)c12 (some centres unmarked) [Example 293]	< 500
CC(C)c1csc2ncnc(N3CC4CC3CC4OCCN3CC[C@H](F)C3)c12 (some centres unmarked) [Example 294]	< 500
CC(C)c1csc2ncnc(N3CC4CC3CC4OCCN3CC[C@@H](F)C3)c12 (some centres unmarked) [Example 295]	< 500
c1ccc(-c2csc3ncnc(N4CCC(OCCCN5CCCC5)CC4)c23)cc1 [Example 296]	< 500
CC(C)c1csc2ncnc(N3C4CCC3CC(OCCN3CCCC3)C4)c12 (centres unmarked) [Example 297]	< 500
COCC1CCN(c2nc(N3C4CCC3CC(O)C4)nc3scc(-c4ccccc4)c23)CC1 (centres unmarked) [Example 299]	500 to 3000
COCC1CC2CCC(C1)N2c1nc(N2CCOCC2)c2c(-c3ccccc3)csc2n1 (centres unmarked) [Example 300]	500 to 3000
c1cc2c(N3C4CCC3COC4)nc(N3CCC(COCCN4CCCC4)CC3)nc2s1 [Example 302]	< 500
